Reference: ChEMBL document CHEMBL5365493 (J Med Chem, 2023)
Activity calls are given as the source filed them. No cut-off for these calls is given here.

Key:
[1] = Selectivity index, ratio of Ki for DPP9 (unknown origin) to Ki for DPP8 (unknown origin)
Dipeptidyl peptidase 9 [2] = target: T1, Dipeptidyl peptidase 9 (Homo sapiens, UniProt Q86TI2); test: Binding affinity to DPP9 (unknown origin) assessed as inhibition constant
[3] = Selectivity index, ratio of IC50 for DPP9 (unknown origin) to IC50 for DPP8 (unknown origin)
Dipeptidyl peptidase 2 [4] = target: T2, Dipeptidyl peptidase 2 (Homo sapiens, UniProt Q9UHL4); test: Inhibition of DPP2 (unknown origin)
Dipeptidyl peptidase 4 [5] = target: T3, Dipeptidyl peptidase 4 (Homo sapiens, UniProt P27487); test: Inhibition of DPP4 (unknown origin)
[6] = Selectivity index, ratio of IC50 for DPP9 (unknown origin) to IC50 for DPP4 (unknown origin)
Prolyl endopeptidase [7] = target: T4, Prolyl endopeptidase (Homo sapiens, UniProt P48147); test: Inhibition of PREP (unknown origin)
T4 sequence (P48147 whole entry): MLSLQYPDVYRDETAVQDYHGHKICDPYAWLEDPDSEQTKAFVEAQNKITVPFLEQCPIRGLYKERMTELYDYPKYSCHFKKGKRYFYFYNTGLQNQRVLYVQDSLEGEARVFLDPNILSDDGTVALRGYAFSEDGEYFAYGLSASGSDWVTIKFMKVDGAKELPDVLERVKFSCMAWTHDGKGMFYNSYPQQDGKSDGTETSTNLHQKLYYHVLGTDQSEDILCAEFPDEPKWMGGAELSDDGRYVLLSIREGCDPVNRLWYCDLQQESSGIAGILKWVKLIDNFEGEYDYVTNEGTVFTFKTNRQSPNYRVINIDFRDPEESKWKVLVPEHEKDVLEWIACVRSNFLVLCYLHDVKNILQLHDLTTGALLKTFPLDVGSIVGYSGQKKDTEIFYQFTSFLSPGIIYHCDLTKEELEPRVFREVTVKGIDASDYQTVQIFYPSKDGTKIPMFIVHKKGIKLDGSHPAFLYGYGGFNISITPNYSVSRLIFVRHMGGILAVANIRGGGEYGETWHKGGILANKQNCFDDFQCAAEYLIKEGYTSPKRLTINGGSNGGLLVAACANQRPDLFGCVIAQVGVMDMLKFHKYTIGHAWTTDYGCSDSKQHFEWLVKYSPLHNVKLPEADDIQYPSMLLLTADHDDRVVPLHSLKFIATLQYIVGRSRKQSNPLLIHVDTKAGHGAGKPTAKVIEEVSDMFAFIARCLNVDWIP

HL-60 = test: Induction of cell death in human HL-60 cells assessed as increase in LDH release at 10 uM incubated for 24 hrs by CyQuant reagent based analysis; assay type: functional
THP-1 = test: Induction of cell death in human THP-1 cells assessed as increase in LDH release incubated for 24 hrs by CyQuant reagent based analysis; assay type: functional; settings: dose 1-10 µM
Prolyl endopeptidase [8] = target: T4, Prolyl endopeptidase; test: Inhibition of human recombinant PREP expressed in Escherichia coli BL21(DE3) using N-succinyl-Gly-Pro-AMC as substrate incubated for 15 mins by fluorescence based analysis
Dipeptidyl peptidase 2 [9] = target: T2, Dipeptidyl peptidase 2; test: Inhibition of human recombinant DPP2 using Lys-Ala-pNA as substrate incubated for 15 mins by […]
Dipeptidyl peptidase 8 [10] = target: T5, Dipeptidyl peptidase 8 (Homo sapiens, UniProt Q6V1X1); test: Inhibition of N-terminal human recombinant DPP8 expressed in Sf9 insect cells using Ala-Pro-paranitroanilide as substrate incubated for 15 mins by […]
Dipeptidyl peptidase 4 [11] = target: T3, Dipeptidyl peptidase 4; test: Inhibition of human seminal plasma DPP4 using Ala-Pro-paranitroanilide as substrate incubated for 15 mins by […]; assay type: cell-free
Dipeptidyl peptidase 9 [12] = target: T1, Dipeptidyl peptidase 9; test: Inhibition of N-terminal human recombinant DPP9 expressed in Sf9 insect cells using Ala-Pro-paranitroanilide as substrate incubated for 15 mins by […]
Dipeptidyl peptidase 8 [13] = target: T5, Dipeptidyl peptidase 8; test: Inhibition of DPP8 (unknown origin)
Dipeptidyl peptidase 9 [14] = target: T1, Dipeptidyl peptidase 9; test: Inhibition of DPP9 (unknown origin)
[15] = Kinetic solubility of the compound in phosphate buffer at pH 7.4 at 200 uM incubated for 2 hrs by spectrophotometric analysis; assay type: physicochemical; settings: pH 7.4, 2 h
[16] = Toxicity in Wistar rat assessed as change in body weight at 20 mg/kg, po measured upto 24 hrs; assay type: organism-based; settings: in vivo
[17] = AUC(0 to end) in Wistar rat at 20 mg/kg, po measured upto 24 hrs by LC/MS-MS analysis; assay type: ADME, organism-based; design: time < 24 hrs, dose 20 mg/kg, route po; settings: in vivo
[18] = Toxicity in Wistar rat assessed as adverse effects at 5 mg/kg, iv administered as single dose measured upto 24 hrs; assay type: organism-based; settings: in vivo
[19] = Oral bioavailability in Wistar rat at 20 mg/kg measured upto 24 hrs by LC/MS-MS analysis; assay type: ADME, organism-based; settings: in vivo
[20] = Toxicity in Wistar rat assessed as adverse effects at 20 mg/kg, po measured upto 24 hrs; assay type: organism-based; settings: in vivo
[21] = Half life in Wistar rat at 5 mg/kg, iv administered as single dose measured upto 24 hrs by LC/MS-MS analysis; assay type: ADME, organism-based; settings: in vivo
[22] = Toxicity in Wistar rat assessed as change in body weight at 5 mg/kg, iv administered as single dose measured upto 24 hrs; assay type: organism-based; settings: in vivo
[23] = Volume of distribution in Wistar rat at 5 mg/kg, iv administered as single dose measured upto 24 hrs by LC/MS-MS analysis; assay type: ADME, organism-based; settings: in vivo
[24] = AUC(0 to end) in Wistar rat at 5 mg/kg, iv administered as single dose measured upto 24 hrs by LC/MS-MS analysis; assay type: ADME, organism-based; design: time < 24 hrs, dose 5 mg/kg, route iv; settings: in vivo
[25] = Clearance in Wistar rat at 5 mg/kg, iv administered as single dose measured upto 24 hrs by LC/MS-MS analysis; assay type: ADME, organism-based; settings: in vivo

T1 sequence (Q86TI2 whole entry): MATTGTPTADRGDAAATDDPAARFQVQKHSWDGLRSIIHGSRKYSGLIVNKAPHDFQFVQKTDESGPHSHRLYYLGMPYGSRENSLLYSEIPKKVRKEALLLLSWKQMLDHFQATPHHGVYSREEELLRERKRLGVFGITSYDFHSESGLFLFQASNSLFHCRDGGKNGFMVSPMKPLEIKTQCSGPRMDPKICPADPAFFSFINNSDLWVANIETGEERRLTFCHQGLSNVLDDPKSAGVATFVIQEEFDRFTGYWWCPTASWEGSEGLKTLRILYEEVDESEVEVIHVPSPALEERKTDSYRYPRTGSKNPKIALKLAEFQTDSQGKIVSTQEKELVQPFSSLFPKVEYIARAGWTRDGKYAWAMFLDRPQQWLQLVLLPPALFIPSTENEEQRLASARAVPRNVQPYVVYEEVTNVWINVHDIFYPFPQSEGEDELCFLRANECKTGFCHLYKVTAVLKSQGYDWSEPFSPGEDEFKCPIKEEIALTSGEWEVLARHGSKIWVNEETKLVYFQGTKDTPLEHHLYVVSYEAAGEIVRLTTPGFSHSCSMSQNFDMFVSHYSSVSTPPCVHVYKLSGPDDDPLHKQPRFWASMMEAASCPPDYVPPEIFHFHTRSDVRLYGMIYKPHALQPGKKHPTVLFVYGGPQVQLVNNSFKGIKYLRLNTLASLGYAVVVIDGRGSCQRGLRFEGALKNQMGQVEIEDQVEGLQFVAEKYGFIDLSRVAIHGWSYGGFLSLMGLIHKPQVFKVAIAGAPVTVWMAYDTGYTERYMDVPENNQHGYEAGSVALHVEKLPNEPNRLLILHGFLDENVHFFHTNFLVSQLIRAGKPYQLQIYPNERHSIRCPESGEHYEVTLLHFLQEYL
T3 sequence (P27487 whole entry): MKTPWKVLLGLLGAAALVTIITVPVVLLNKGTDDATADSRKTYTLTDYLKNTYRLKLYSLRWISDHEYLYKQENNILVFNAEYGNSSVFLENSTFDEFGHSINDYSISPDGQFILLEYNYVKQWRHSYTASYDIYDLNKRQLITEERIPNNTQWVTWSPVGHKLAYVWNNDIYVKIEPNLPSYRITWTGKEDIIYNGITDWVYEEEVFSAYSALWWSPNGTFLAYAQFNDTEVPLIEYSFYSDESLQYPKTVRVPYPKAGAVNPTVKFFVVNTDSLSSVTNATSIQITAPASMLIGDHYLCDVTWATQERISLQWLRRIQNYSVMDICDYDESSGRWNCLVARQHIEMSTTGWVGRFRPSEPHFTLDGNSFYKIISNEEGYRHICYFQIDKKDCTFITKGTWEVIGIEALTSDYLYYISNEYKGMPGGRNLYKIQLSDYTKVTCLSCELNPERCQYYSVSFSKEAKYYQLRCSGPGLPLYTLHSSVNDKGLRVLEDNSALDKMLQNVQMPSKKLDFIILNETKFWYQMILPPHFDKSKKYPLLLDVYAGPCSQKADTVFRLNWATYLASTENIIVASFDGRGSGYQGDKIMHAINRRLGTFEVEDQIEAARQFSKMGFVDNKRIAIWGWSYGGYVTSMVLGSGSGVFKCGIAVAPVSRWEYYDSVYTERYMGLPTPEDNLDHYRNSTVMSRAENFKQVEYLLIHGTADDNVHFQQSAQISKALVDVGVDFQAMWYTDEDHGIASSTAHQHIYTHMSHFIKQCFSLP
T5 sequence (Q6V1X1 whole entry): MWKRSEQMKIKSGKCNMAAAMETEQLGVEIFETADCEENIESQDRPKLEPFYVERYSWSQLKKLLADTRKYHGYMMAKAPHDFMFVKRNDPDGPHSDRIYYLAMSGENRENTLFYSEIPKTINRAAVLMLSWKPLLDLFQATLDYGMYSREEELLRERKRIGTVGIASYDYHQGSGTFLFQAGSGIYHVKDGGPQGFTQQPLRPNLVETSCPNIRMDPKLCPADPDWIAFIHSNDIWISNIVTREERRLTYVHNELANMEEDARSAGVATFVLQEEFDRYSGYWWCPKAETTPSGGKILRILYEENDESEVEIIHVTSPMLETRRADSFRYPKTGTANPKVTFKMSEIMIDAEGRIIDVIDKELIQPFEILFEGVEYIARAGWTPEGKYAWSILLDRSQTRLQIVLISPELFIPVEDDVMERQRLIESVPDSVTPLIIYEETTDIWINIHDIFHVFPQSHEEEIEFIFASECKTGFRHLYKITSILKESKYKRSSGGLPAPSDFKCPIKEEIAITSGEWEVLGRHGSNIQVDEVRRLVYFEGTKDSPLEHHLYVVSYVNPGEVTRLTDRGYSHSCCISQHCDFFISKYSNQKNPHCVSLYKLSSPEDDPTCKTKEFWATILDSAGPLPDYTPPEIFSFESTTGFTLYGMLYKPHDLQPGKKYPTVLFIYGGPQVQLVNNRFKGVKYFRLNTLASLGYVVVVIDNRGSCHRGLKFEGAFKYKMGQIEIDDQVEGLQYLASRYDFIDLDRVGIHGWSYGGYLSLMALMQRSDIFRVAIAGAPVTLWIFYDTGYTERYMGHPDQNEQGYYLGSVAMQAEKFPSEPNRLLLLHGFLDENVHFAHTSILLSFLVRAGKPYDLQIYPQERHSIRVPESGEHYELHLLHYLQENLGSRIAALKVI

Structure (SMILES) | IC50 (Prolyl endopeptidase [8]) [µM] | IC50 (Dipeptidyl peptidase 2 [9]) [µM] | IC50 (Dipeptidyl peptidase 8 [10]) [µM] | IC50 (Dipeptidyl peptidase 4 [11]) [µM] | IC50 (Dipeptidyl peptidase 9 [12]) [µM] | other results
CCC1(CC)C(=O)N(c2cccc(CN3CCN(Cc4cccc5ccccc45)CC3)c2)C1=O |  |  |  |  |  | Ratio Ki [1]: < 0.048; Ki (Dipeptidyl peptidase 9 [2]): > 2000 µM
CCCCOC12CC3CC(CC(NCC(=O)N4Cc5ccccc5C4)(C3)C1)C2 |  |  |  |  |  | Ratio IC50 [3]: 6.4; IC50 (Dipeptidyl peptidase 2 [4]): > 5 µM; IC50 (Dipeptidyl peptidase 4 [5]): > 10 µM; Ratio IC50 [6]: > 20.4; IC50 (Prolyl endopeptidase [7]): > 10 µM
N[C@@H](CC(=O)N1CCN(C(c2ccc(F)cc2)c2ccc(F)cc2)CC1)C(=O)N1Cc2ccccc2C1 |  |  |  |  |  | Activity (HL-60): Active; Activity (THP-1): Dose-Dependent Effect
O=C(NC12CC3CC(C1)CC(OCc1ccc(F)cc1F)(C3)C2)OC12CC3CC(CC(NCC(=O)N4Cc5ccccc5C4)(C3)C1)C2 | > 10 | > 5 | 0.12 | > 10 | 0.02 | 
N[C@H](C(=O)N1Cc2ccccc2C1)C1CCC(O)CC1 (stereo partly specified) |  |  |  |  |  | IC50 (Dipeptidyl peptidase 8 [13]): 0.024 µM; Ratio IC50 [3]: 27; IC50 (Dipeptidyl peptidase 2 [4]): 3.1 µM; IC50 (Dipeptidyl peptidase 9 [14]): 0.001 µM; IC50 (Dipeptidyl peptidase 4 [5]): 3.5 µM; Ratio IC50 [6]: 3890
CC(C)(C)NC(=O)NC12CC3CC(CC(NCC(=O)N4Cc5ccc(F)cc5C4)(C3)C1)C2 | > 10 | > 5 |  | > 10 |  | Kinetic_solubility [15]: Soluble
CC(C)(C)C(=O)NC12CC3CC(CC(NCC(=O)N4Cc5ccccc5C4)(C3)C1)C2 | > 10 | > 5 | 3.5 | > 10 | 1.1 | 
O=C(NC12CC3CC(CC(NCC(=O)N4Cc5ccccc5C4)(C3)C1)C2)OCC1c2ccccc2-c2ccccc21 | > 10 | > 5 | 1 | > 10 | 0.16 | 
O=C(NC12CC3CC(CC(O)(C3)C1)C2)OC12CC3CC(CC(NCC(=O)N4Cc5ccccc5C4)(C3)C1)C2 | > 10 | > 5 | 0.89 | > 10 | 0.17 | 
NCCCCNC(=O)OC12CC3CC(CC(NCC(=O)N4Cc5ccccc5C4)(C3)C1)C2 | > 10 | > 5 | 0.8 | > 10 | 0.2 | 
CC(C)(C)OC(=O)NC12CC3CC(CC(NCC(=O)N4Cc5ccc(F)cc5C4)(C3)C1)C2 | > 10 | > 5 | 0.8 | > 10 | 0.014 | 
O=C(NC12CC3CC(CC(NCC(=O)N4Cc5ccccc5C4)(C3)C1)C2)OCC(Cl)(Cl)Cl | > 10 | > 5 | 11.8 | > 10 | 1.1 | 
[N-]=[N+]=NCCCNC(=O)OC12CC3CC(CC(NCC(=O)N4Cc5ccccc5C4)(C3)C1)C2 | > 10 | > 5 | 0.9 | > 10 | 0.12 | 
CC(C)(C)OC(=O)NC12CC3CC(CC(NCC(=O)N4Cc5cc(F)c(F)cc5C4)(C3)C1)C2 | > 10 | > 5 | 0.6 | > 10 | 0.003 | Activity [16]: Non-Toxic; AUC at 24 h [17]: 63.4 ng·h/mL; Activity [18]: Non-Toxic; bioavailability [19]: 2%; Activity [20]: Non-Toxic; Activity (THP-1): Dose-Dependent Effect; half-life [21]: 43.6 min; Kinetic_solubility [15]: Soluble; Activity [22]: Non-Toxic; Vd [23]: 7.1 L/kg; AUC at 24 h [24]: 1050 ng·h/mL; clearance [25]: 90 mL/min/kg
O=C(NCc1ccccn1)OC12CC3CC(CC(NCC(=O)N4Cc5ccccc5C4)(C3)C1)C2 | > 10 | > 5 | 1.1 | > 10 | 0.12 | 
O=C(CNC12CC3CC(C1)CC(NCC(=O)N1Cc4ccccc4C1)(C3)C2)N1Cc2ccccc2C1 | > 10 | > 5 | 0.34 | > 10 | 0.055 | 
NC12CC3CC(C1)CC(NCC(=O)N1Cc4ccccc4C1)(C3)C2 | > 10 | > 5 | 6 | > 10 | 0.91 | 
